# Key:
# [1] = DRUGMATRIX: Potassium Channel [KATP] radioligand binding (ligand: [3H] Glyburide); type: cell membranes, Membrane; conditions: hit-t15; Not Active = under 50% inhibition at 10 µM
# [2] = DRUGMATRIX: Interleukin IL-1 radioligand binding (ligand: [125I] interleukin 1beta); type: cell membranes, Membrane; conditions: nih3t3; Not Active = under 50% inhibition at 10 µM
# [3] = DRUGMATRIX: Purinergic P2X radioligand binding (ligand: [3H] alpha, beta-Methylene-ATP); type: cell membranes, Oryctolagus cuniculus, New Zealand albino, Urinary bladder, Membrane; conditions: Not Active = under 50% inhibition at 10 µM
# [4] = target: T1, Alpha-1A adrenergic receptor (Rattus norvegicus, UniProt P43140); assay: DRUGMATRIX: Alpha-1A adrenergic receptor radioligand binding (ligand: prazosin); type: cell membranes, Wistar, Submaxillary gland, Membrane; conditions: Not Active = under 50% inhibition at 10 µM
# T1 sequence (P43140 whole entry): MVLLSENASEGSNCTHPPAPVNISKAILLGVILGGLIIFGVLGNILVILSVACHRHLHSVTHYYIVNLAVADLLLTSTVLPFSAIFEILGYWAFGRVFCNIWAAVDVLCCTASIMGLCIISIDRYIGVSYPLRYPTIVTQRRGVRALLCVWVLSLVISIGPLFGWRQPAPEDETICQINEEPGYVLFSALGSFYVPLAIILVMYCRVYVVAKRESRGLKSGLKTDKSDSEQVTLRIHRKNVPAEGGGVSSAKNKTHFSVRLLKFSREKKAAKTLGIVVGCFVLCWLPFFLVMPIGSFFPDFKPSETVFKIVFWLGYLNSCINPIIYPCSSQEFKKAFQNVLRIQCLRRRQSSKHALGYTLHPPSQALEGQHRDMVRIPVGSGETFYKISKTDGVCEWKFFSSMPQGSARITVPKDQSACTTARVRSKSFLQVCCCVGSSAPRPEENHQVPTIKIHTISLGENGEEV
# Cytochrome P450 3A4 = Cytochrome P450 3A4 (Homo sapiens, UniProt P08684); conditions: bti-tn-5b1-4; note: in other assays of this panel Not Active means under 50% inhibition at 10 µM
# Mu-type opioid receptor = Mu-type opioid receptor (Homo sapiens, UniProt P35372); assay: DRUGMATRIX: Opiate mu (OP3, MOP) radioligand binding (ligand: [3H] Diprenorphine); type: cell membranes, CHO-K1, Membrane; conditions: cho-k1; Not Active = under 50% inhibition at 10 µM
# [5] = target: Voltage-gated inwardly rectifying potassium channel KCNH2 (Homo sapiens, UniProt Q12809); conditions: hek293; note: in other assays of this panel Not Active means under 50% inhibition at 10 µM
# [6] = target: T2, Angiotensin-converting enzyme (Oryctolagus cuniculus, UniProt P12822); assay: biochemical; type: tissue-based, Lung;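 note: enzymatic inhibition of angiotensin-converting enzyme measured with FAPGG as the substrate; in other assays of this panel Not Active means under 50% inhibition at 10 µM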
# T2 sequence (P12822 whole entry): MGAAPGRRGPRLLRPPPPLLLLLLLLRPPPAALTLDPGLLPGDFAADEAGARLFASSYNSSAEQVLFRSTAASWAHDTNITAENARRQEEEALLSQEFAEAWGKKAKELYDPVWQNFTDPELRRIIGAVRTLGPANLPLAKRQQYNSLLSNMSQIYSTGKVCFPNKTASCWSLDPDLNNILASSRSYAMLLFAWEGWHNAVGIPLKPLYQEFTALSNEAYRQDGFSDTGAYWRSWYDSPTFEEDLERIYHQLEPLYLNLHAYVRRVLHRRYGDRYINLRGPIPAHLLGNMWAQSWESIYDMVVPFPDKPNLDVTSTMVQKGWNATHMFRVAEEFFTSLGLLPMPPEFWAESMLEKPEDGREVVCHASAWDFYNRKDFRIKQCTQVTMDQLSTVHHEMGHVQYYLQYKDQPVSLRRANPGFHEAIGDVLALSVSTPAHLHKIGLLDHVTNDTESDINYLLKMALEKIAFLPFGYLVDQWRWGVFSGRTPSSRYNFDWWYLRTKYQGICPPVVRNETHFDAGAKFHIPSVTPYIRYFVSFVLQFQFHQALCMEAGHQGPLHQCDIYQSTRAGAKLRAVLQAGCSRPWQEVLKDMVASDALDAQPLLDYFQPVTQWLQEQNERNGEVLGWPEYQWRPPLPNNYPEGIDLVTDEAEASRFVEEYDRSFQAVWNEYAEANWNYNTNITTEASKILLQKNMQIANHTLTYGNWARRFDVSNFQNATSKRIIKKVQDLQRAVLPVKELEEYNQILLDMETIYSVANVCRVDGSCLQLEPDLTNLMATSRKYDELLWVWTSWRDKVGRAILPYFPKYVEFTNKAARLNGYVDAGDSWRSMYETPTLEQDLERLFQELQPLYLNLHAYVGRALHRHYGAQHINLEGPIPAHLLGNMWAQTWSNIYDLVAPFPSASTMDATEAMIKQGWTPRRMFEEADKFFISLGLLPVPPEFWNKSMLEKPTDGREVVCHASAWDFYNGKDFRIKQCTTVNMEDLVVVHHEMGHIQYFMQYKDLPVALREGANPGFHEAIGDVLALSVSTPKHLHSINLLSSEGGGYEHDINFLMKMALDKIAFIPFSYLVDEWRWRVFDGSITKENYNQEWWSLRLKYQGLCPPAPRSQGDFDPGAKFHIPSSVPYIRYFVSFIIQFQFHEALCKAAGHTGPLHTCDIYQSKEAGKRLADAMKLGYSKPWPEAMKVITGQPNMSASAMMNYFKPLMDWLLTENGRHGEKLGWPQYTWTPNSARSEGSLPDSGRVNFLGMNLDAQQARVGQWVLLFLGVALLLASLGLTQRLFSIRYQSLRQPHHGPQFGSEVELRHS
# [7] = target: Sodium-dependent dopamine transporter (Homo sapiens, UniProt Q01959); assay: DRUGMATRIX: Dopamine Transporter radioligand binding (ligand: [125I] RTI-55); type: cell membranes, CHO-K1, Membrane; conditions: Not Active = under 50% inhibition at 10 µM
# [8] = target: T3, Cysteinyl leukotriene receptor 1 (Homo sapiens, UniProt Q9Y271); type: cell membranes, CHO-K1, Membrane; conditions: cho-k1; note: in other assays of this panel Not Active means under 50% inhibition at 10 µM
# T3 sequence (Q9Y271 whole entry): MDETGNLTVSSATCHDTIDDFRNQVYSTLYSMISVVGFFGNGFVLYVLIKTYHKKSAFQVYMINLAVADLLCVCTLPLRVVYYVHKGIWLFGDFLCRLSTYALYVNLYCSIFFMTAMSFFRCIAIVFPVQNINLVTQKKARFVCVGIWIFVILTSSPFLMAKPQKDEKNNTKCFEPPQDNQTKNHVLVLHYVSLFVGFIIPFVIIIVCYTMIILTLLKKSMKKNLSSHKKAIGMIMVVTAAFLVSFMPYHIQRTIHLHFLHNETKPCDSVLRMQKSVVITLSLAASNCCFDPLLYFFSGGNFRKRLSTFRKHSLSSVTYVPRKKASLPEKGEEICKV
# [9] = DRUGMATRIX: beta-Lactamase enzyme inhibition (substrate: Nitrocefin); set-up: species or system Bacillus cereus; conditions: Not Active = under 50% inhibition at 10 µM
# [10] = DRUGMATRIX: Glutamate, NMDA, Phencyclidine radioligand binding (ligand: [3H] TCP); type: cell membranes, Rattus norvegicus, Wistar, Cerebral cortex, Membrane; conditions: Not Active = under 50% inhibition at 10 µM
# [11] = DRUGMATRIX: Glutamate, NMDA, Agonism radioligand binding (ligand: [3H] CGP-39653); type: cell membranes, Rattus norvegicus, Wistar, Cerebral cortex, Membrane; conditions: Not Active = under 50% inhibition at 10 µM
# Chain of Cytochrome P450 3A4 (P08684 whole entry): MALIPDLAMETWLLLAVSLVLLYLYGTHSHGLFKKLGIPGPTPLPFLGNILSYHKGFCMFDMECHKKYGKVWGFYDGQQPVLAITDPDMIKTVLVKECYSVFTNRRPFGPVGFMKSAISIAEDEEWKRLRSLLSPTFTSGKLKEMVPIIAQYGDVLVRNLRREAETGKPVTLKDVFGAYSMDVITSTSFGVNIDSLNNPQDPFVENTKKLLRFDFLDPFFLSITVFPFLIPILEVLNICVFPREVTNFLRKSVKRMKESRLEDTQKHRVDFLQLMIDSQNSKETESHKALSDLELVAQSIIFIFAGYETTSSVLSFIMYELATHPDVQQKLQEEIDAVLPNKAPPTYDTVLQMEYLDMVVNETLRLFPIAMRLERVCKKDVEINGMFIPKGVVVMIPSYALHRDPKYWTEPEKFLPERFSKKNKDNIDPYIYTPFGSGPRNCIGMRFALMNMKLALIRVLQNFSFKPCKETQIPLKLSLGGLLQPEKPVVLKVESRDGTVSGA
# Chain of Voltage-gated inwardly rectifying potassium channel KCNH2 (Q12809 whole entry): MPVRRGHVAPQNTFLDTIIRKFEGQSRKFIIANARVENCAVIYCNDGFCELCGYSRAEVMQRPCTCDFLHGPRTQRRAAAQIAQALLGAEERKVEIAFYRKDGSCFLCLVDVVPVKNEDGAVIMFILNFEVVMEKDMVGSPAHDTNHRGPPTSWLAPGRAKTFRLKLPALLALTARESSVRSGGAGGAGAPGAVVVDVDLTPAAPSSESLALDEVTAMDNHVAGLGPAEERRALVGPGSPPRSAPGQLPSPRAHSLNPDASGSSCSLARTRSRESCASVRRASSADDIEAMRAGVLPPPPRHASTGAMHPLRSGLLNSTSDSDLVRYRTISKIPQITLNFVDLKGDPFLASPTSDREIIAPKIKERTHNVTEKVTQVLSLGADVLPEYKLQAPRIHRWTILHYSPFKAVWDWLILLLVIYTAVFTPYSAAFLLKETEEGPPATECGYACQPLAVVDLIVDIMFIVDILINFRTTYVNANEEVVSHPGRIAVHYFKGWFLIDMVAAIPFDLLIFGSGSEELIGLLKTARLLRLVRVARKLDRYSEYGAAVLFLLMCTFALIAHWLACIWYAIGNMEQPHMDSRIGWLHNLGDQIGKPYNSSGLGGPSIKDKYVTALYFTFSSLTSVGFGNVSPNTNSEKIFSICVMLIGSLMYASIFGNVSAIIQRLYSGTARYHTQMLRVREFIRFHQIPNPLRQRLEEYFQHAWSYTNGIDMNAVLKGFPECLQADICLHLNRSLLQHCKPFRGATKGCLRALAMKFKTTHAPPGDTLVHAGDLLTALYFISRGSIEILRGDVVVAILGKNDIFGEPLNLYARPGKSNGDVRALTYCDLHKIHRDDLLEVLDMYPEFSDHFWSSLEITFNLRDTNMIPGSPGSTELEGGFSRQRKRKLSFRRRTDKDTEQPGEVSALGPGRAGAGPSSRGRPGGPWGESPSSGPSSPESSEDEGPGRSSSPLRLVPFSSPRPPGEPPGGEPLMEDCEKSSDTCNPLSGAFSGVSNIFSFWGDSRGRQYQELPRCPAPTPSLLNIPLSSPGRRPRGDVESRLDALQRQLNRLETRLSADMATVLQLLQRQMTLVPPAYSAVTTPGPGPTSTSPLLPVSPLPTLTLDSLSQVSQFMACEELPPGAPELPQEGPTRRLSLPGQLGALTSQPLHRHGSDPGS
# Chain of Mu-type opioid receptor (P35372 whole entry): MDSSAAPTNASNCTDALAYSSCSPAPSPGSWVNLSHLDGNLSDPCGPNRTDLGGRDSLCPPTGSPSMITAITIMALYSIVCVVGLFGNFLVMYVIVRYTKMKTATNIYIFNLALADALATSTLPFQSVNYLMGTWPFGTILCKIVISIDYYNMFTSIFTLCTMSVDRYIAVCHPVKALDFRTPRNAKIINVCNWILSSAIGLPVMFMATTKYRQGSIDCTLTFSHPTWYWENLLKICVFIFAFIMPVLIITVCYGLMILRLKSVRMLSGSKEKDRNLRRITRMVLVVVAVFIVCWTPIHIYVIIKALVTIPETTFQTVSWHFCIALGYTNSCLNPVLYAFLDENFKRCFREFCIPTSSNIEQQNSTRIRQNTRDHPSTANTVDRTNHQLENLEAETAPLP
# Chain of Sodium-dependent dopamine transporter (Q01959 whole entry): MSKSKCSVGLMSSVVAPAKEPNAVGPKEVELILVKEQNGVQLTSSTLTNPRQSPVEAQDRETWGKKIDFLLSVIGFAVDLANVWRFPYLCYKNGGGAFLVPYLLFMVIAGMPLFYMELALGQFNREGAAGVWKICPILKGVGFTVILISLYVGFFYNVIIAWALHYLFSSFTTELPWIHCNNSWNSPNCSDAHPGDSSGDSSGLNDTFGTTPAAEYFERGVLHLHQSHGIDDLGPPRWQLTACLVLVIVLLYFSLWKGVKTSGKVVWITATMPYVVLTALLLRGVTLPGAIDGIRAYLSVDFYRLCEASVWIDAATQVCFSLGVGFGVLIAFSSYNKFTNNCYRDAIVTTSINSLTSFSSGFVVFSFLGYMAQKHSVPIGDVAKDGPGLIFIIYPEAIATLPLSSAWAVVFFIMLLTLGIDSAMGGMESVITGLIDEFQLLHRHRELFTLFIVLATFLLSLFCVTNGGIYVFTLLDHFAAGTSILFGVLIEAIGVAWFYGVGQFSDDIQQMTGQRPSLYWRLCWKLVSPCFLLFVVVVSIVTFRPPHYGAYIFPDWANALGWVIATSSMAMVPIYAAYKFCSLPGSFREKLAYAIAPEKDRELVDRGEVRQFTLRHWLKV
Structure (SMILES),IC50 [1],Ki [1],IC50 [2],Ki [2],IC50 [3],Ki [3],IC50 [4],IC50 (Cytochrome P450 3A4),Ki (Cytochrome P450 3A4),IC50 (Mu-type opioid receptor),IC50 [5],Ki [5],IC50 [6],IC50 [8],IC50 [9],Ki [9],IC50 [10],Ki [10],IC50 [11],Ki [11],other results
Oc1cccc2cccnc12 [OXYQUINOLINE],Not Active,Not Active,Not Active,Not Active,Not Active,Not Active,Not Active,Not Active,Not Active,Not Active,Not Active,Not Active,Not Active,Not Active,Not Active,Not Active,Not Active,Not Active,Not Active,Not Active,IC50 ([7]; cho-k1): Not Active
CN1CCC[C@H]1c1cccnc1 [NICOTINE],Not Active,Not Active,Not Active,Not Active,Not Active,Not Active,Not Active,Not Active,Not Active,Not Active,Not Active,Not Active,Not Active,Not Active,Not Active,Not Active,Not Active,Not Active,Not Active,Not Active,IC50 ([7]; cho-k1): Not Active
NCC[C@H](O)C(=O)N[C@@H]1C[C@H](N)[C@@H](O[C@H]2O[C@H](CN)[C@@H](O)[C@H](O)[C@H]2O)[C@H](O)[C@H]1O[C@H]1O[C@H](CO)[C@@H](O)[C@H](N)[C@H]1O [AMIKACIN],Not Active,Not Active,Not Active,Not Active,Not Active,Not Active,Not Active,Not Active,Not Active,Not Active,Not Active,Not Active,Not Active,Not Active,Not Active,Not Active,Not Active,Not Active,Not Active,Not Active,IC50 ([7]; cho-k1): Not Active
C/C=C1\[C@H]2C=C(C)C[C@]1(N)c1ccc(=O)[nH]c1C2 [HUPERZINE A],Not Active,Not Active,Not Active,Not Active,Not Active,Not Active,Not Active,Not Active,Not Active,Not Active,Not Active,Not Active,Not Active,Not Active,Not Active,Not Active,Not Active,Not Active,Not Active,Not Active,IC50 ([7]; cho-k1): Not Active
CC(/C=C1\SC(=S)N(CC(=O)O)C1=O)=C\c1ccccc1,Not Active,Not Active,Not Active,Not Active,Not Active,Not Active,Not Active,Not Active,Not Active,Not Active,Not Active,Not Active,Not Active,Not Active,Not Active,Not Active,Not Active,Not Active,Not Active,Not Active,IC50 ([7]; cho-k1): Not Active
CCC1(c2ccccc2)C(=O)NCNC1=O [PRIMIDONE],Not Active,Not Active,Not Active,Not Active,Not Active,Not Active,Not Active,Not Active,Not Active,Not Active,Not Active,Not Active,Not Active,Not Active,Not Active,Not Active,Not Active,Not Active,Not Active,Not Active,IC50 ([7]; cho-k1): Not Active
CNCCC=C1c2ccccc2CCc2ccccc21 [NORTRIPTYLINE],Not Active,Not Active,Not Active,Not Active,Not Active,Not Active,–,Not Active,Not Active,Not Active,Not Active,Not Active,Not Active,Not Active,Not Active,Not Active,Not Active,Not Active,Not Active,Not Active,IC50 ([4]; read-out: IC50): 305 nM; Ki ([4]; read-out: Ki): 123 nM; IC50 ([7]; read-out: IC50): 1680 nM; Ki ([7]; read-out: Ki): 1330 nM
